# Assay results taken from patent US20220041681A1 (MEDIMMUNE LIMITED, priority 2016, published 2022).
# Numbered stars: 1 amine (or outer) side, 2 acyl side, 3 side chain; on linkers, the order of the positions; unused ones are H or OH. Side chains are listed from the residue outwards. Peptide text beside a SMILES is read from it. * marks the point of attachment. γGlu = O=C(O)[C@H](CCC(=O)[*:2])N[*:1]; Palmitoyl = CCCCCCCCCCCCCCCC(=O)*; Ahx = NCCCCCC(=O)O; βAla = NCCC(=O)O
# How the values were obtained:
# [1] = system: diet induced obesity (DIO) mouse model; assay: Diet induced obesity (DIO) mouse model, study B; format: in vivo
# Protocol: (§1) The body weight of the animals was monitored daily throughout the dosing period. At day 14, blood samples for the measurement of plasma glucose and insulin from conscious mice were obtained after a 4-hour fasting period. Mice were then anaesthetized using isoflourane and terminal blood was collected from the capillary bed behind the eye. The following parameters were measured: blood chemistry measurements of triglycerides, total cholesterol, non-esterified fatty acids (NEFA), beta-hydroxybutyrate and fibroblast growth factor 21 (FGF21) (Table 16 and Table 17 below).
# [2] = system: diet induced obesity (DIO) mouse model; assay: Diet induced obesity (DIO) mouse model, study A; format: in vivo
# Excerpt: Female C57/Bl6JHsdOla (obtained from Harlan Laboratories. UK) were started on a high fat diet of D12492 (Research Diets, NJ, USA) and a chocolate confection, delicato ball (Delicata Bakverk, Sweden) at 9-11 weeks of age, and were maintained on the diet for 16 weeks prior to arrival to the animal facility, during a three week acclimation period and during drug treatment, caloric content of the two components of the diet is shown in Table 11. The mice were divided into 9 groups (n=5-6), and treatment was started at 29 weeks of age.
# as §1, with “throughout die” for “throughout the”, “using isofluorane” for “using isoflourane”, “(FGF21) (Tables 14” for “(FGF21) (Table 16”, “and 15” for “and Table 17”
# Human GlucR = molecular target: T1, Human GlucR (Homo sapiens, UniProt P47871); assay: cAMP activity assay (assay 1) in assay medium; format: cell-based; details: Table 4, additional peptides, read-out: hGlucR EC50
# T1 construct: expressed in transfected cells
# T1 sequence (P47871 26-477): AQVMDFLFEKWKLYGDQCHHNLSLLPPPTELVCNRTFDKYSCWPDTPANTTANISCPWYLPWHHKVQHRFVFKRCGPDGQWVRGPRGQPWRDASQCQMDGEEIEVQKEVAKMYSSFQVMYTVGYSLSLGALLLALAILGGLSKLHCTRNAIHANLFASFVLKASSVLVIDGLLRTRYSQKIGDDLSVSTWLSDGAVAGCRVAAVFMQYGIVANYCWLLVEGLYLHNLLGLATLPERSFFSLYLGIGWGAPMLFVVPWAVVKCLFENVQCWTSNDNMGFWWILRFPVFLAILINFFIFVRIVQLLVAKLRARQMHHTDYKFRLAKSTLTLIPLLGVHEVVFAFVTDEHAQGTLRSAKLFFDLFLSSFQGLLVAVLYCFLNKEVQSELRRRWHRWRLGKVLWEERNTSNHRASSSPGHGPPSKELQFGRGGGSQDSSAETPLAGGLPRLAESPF
# Protocol: (§2) All sample dilutions were made in duplicate.
# (§3) A frozen cryo-vial of cells expressing the receptor of interest was thawed rapidly in a water-bath, transferred to pre-warmed assay media and spun at 240×g for 5 minutes. Cells were re-suspended in assay media at an optimized concentration (e.g. hGCGR cells at 1×10^5 cells/ml, hGLP-1R and hGIPR cells at 0.5×10^5 cells/ml).
# (§4) To this, 5 μL cell suspension was added and the plates incubated at room temperature for 30 minutes.
# (§5) cAMP levels were measured using a commercially available cAMP dynamic 2 HTRF kit (Cisbio, Cat #62AM4PEJ), following the two step protocol as per manufacturer's recommendations. In brief; anti-cAMP cryptate (donor fluorophore) and cAMP-d2 (acceptor fluorophore) were made up separately by diluting each 120 in conjugate & lysis buffer provided in the kit. 5 μL anti-cAMP cryptate was added to all wells of the assay plate, and 5 μL cAMP-d2 added to all wells except non-specific binding (NSB) wells, to which conjugate and lysis buffer was added.
# Human GLP1R = Human GLP1R (Homo sapiens, UniProt P43220); assay: cAMP activity assay (assay 1) in assay medium; format: cell-based; details: Table 4, additional peptides, read-out: hGLP1R EC50
# Human GLP1R, sequence (P43220 24-463): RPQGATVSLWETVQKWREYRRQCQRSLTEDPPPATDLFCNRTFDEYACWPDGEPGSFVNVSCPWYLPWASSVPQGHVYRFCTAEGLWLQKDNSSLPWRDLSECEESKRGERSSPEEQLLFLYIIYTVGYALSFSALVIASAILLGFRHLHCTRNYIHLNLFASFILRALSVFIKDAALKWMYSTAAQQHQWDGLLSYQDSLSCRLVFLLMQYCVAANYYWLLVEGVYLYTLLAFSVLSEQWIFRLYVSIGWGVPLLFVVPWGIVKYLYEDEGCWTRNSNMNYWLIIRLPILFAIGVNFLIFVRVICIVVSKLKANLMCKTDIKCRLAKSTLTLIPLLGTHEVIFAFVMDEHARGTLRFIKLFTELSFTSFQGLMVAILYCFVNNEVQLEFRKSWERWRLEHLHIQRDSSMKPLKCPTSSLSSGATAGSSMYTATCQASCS
# Protocol: as §2, §3, §4, §5
# [3] = 27 nmol/kg sc twice daily, day 14
# [4] = 27 nmol/kg sc twice daily, day 14, 4-hour fasting
smiles,measurement,setting,value
"CCCCCCCCCCCCCCCC(=O)N[C@@H](CCC(=O)NCCCC[C@H](NC(=O)[C@H](C)NC(=O)[C@H](C)NC(=O)[C@H](CCC(N)=O)NC(=O)CNC(=O)[C@H](CCC(=O)O)NC(=O)[C@H](CC(C)C)NC(=O)[C@H](Cc1ccc(O)cc1)NC(=O)[C@H](CO)NC(=O)[C@H](CO)NC(=O)[C@@H](NC(=O)[C@H](CC(=O)O)NC(=O)[C@H](CO)NC(=O)[C@@H](NC(=O)[C@H](Cc1ccccc1)NC(=O)[C@@H](NC(=O)CNC(=O)[C@H](CCC(=O)O)NC(=O)[C@H](C)NC(=O)[C@@H](N)Cc1cnc[nH]1)[C@@H](C)O)[C@@H](C)O)C(C)C)C(=O)N[C@@H](CCC(=O)O)C(=O)N[C@@H](Cc1ccccc1)C(=O)N[C@H](C(=O)N[C@@H](C)C(=O)N[C@@H](Cc1c[nH]c2ccccc12)C(=O)N[C@@H](CC(C)C)C(=O)N[C@H](C(=O)N[C@@H](CCCNC(=N)N)C(=O)NCC(=O)N[C@@H](CCCNC(=N)N)C(=O)NCC(=O)O)C(C)C)[C@@H](C)CC)C(=O)O [Liraglutide, reference compound]",BW day 14 (% change of vehicle mean),[1]; 27 nmol/kg sc twice daily for 14 days,−14%
same,FGF 21,[1]; [3],2990 pg/mL
same,HOMA,[1]; [3],3.51
same,Hepatic TG,[1]; [3],18.4 g TG/100 g tissue
same,Plasma Cholesterol,[1]; [3],3.26 mM
same,Plasma NEFA,[1]; [3],0.29 mM
same,Plasma TG,[1]; [3],0.28 mM
same,Glucose,[1]; [4],7.7 mM
same,Insulin,[1]; [4],0.31 nM
same,BW day 14 (% change of vehicle mean),[2]; 27 nmol/kg sc twice daily 14 days,−13.3%
same,BeHy,"[2]; 27 nmol/kg, day 14",345 u mol/l
same,FGF 21,"[2]; 27 nmol/kg, day 14",2481 pg/mL
same,HOMA,"[2]; 27 nmol/kg, day 14",2.8
same,Hepatic TG,"[2]; 27 nmol/kg, day 14",13.1 g TB/100 g tissue
same,Insulin,"[2]; 27 nmol/kg, day 14",0.3 nM
same,Plasma Cholesterol,"[2]; 27 nmol/kg, day 14",3.75 mM
same,Plasma NEFA,"[2]; 27 nmol/kg, day 14",0.24 Mm
same,Plasma TG,"[2]; 27 nmol/kg, day 14",0.24 mM
same,Glucose,"[2]; 27 nmol/kg, day 14, 4-hour fasting",8.0 mM
CCCCCCCCCCCCCCCC(=O)N[C@@H](CCC(=O)NCCCC[C@H](NC(=O)[C@H](CO)NC(=O)[C@H](CC(=O)O)NC(=O)[C@H](CC(C)C)NC(=O)[C@H](Cc1ccc(O)cc1)NC(=O)[C@H](CCCCN)NC(=O)[C@H](CO)NC(=O)[C@H](Cc1ccc(O)cc1)NC(=O)[C@H](CC(=O)O)NC(=O)[C@H](CO)NC(=O)[C@@H](NC(=O)[C@H](Cc1ccccc1)NC(=O)[C@@H](NC(=O)CNC(=O)[C@H](CCC(N)=O)NC(=O)CNC(=O)[C@@H](N)Cc1c[nH]cn1)[C@@H](C)O)[C@@H](C)O)C(=O)N[C@@H](CCCNC(=N)N)C(=O)N[C@@H](C)C(=O)N[C@@H](CCC(N)=O)C(=O)N[C@@H](CC(=O)O)C(=O)N[C@@H](Cc1ccccc1)C(=O)N[C@H](C(=O)N[C@@H](CCC(N)=O)C(=O)N[C@@H](Cc1c[nH]c2ccccc12)C(=O)N[C@@H](CC(C)C)C(=O)N[C@H](C(=O)N[C@@H](C)C(=O)NCC(=O)NCC(N)=O)C(C)C)C(C)C)C(=O)O [g3 ? 0],EC50,Human GlucR,0.362 nM
same,EC50,Human GLP1R,0.1 nM
CCCCCCCCCCCCCCCC(=O)N[C@@H](CCC(=O)NCCCC[C@H](NC(=O)[C@H](CO)NC(=O)[C@H](CC(=O)O)NC(=O)[C@H](CC(C)C)NC(=O)[C@H](Cc1ccc(O)cc1)NC(=O)[C@H](CCCCN)NC(=O)[C@H](CO)NC(=O)[C@H](Cc1ccc(O)cc1)NC(=O)[C@H](CC(=O)O)NC(=O)[C@H](CO)NC(=O)[C@@H](NC(=O)[C@H](Cc1ccccc1)NC(=O)[C@@H](NC(=O)CNC(=O)[C@H](CCC(=O)O)NC(=O)[C@H](CO)NC(=O)[C@@H](N)Cc1c[nH]cn1)[C@@H](C)O)[C@@H](C)O)C(=O)N[C@@H](CCCNC(=N)N)C(=O)N[C@@H](C)C(=O)N[C@@H](CCC(=O)O)C(=O)N[C@@H](CC(=O)O)C(=O)N[C@@H](Cc1ccccc1)C(=O)N[C@H](C(=O)N[C@@H](CCC(=O)O)C(=O)N[C@@H](Cc1c[nH]c2ccccc12)C(=O)N[C@@H](CC(C)C)C(=O)N[C@H](C(=O)N[C@@H](C)C(=O)NCC(=O)NCC(N)=O)C(C)C)C(C)C)C(=O)O [g639] (H-HSEGTFTSDYSKYLDSK([γGlu-Palmitoyl])RAEDFVEWLVAGG-NH2; N-terminus assumed),EC50,Human GlucR,8210 nM
CCCCCCCCCCCCCCCC(=O)NCCCCCC(=O)NCCCC[C@H](NC(=O)[C@H](CO)NC(=O)[C@H](CC(=O)O)NC(=O)[C@H](CC(C)C)NC(=O)[C@H](Cc1ccc(O)cc1)NC(=O)[C@H](CCC(=O)O)NC(=O)[C@H](CO)NC(=O)[C@H](Cc1ccc(O)cc1)NC(=O)[C@H](CC(=O)O)NC(=O)[C@H](CO)NC(=O)[C@@H](NC(=O)[C@H](Cc1ccccc1)NC(=O)[C@@H](NC(=O)CNC(=O)[C@H](CCC(N)=O)NC(=O)CNC(=O)[C@@H](N)Cc1c[nH]cn1)[C@@H](C)O)[C@@H](C)O)C(=O)N[C@@H](CCCNC(=N)N)C(=O)N[C@@H](C)C(=O)N[C@@H](C)C(=O)N[C@@H](CC(=O)O)C(=O)N[C@@H](Cc1ccccc1)C(=O)N[C@H](C(=O)N[C@@H](C)C(=O)N[C@@H](Cc1c[nH]c2ccccc12)C(=O)N[C@@H](CC(C)C)C(=O)N[C@@H](CCC(=O)O)C(=O)N[C@@H](CCCNC(=N)N)C(=O)NCC(=O)NCC(N)=O)C(C)C [g683],EC50,Human GlucR,0.372 nM
CCCCCCCCCCCCCCCC(=O)NCCCCCC(=O)NCCCC[C@H](NC(=O)[C@H](CO)NC(=O)[C@H](CC(=O)O)NC(=O)[C@H](CC(C)C)NC(=O)[C@H](Cc1ccc(O)cc1)NC(=O)[C@H](CCC(=O)O)NC(=O)[C@H](CO)NC(=O)[C@H](Cc1ccc(O)cc1)NC(=O)[C@H](CC(=O)O)NC(=O)[C@H](CO)NC(=O)[C@@H](NC(=O)[C@H](Cc1ccccc1)NC(=O)[C@@H](NC(=O)CNC(=O)[C@H](CCC(N)=O)NC(=O)CNC(=O)[C@@H](N)Cc1c[nH]cn1)[C@@H](C)O)[C@@H](C)O)C(=O)N[C@@H](CCCNC(=N)N)C(=O)N[C@@H](C)C(=O)N[C@@H](CCCNC(=N)N)C(=O)N[C@@H](CC(=O)O)C(=O)N[C@@H](Cc1ccccc1)C(=O)N[C@H](C(=O)N[C@@H](C)C(=O)N[C@@H](Cc1c[nH]c2ccccc12)C(=O)N[C@@H](CC(C)C)C(=O)N[C@@H](CCC(=O)O)C(=O)N[C@@H](CCCNC(=N)N)C(=O)NCC(=O)NCC(N)=O)C(C)C [g684] (H-HGQGTFTSDYSEYLDSK([Ahx-Palmitoyl])RARDFVAWLERGG-NH2; N-terminus assumed),EC50,Human GLP1R,0.0161 nM
CCCCCCCCCCCCCCCC(=O)NCCC(=O)NCCCC[C@H](NC(=O)[C@H](CO)NC(=O)[C@H](CC(=O)O)NC(=O)[C@H](CC(C)C)NC(=O)[C@H](Cc1ccc(O)cc1)NC(=O)[C@H](CCC(=O)O)NC(=O)[C@H](CO)NC(=O)[C@H](Cc1ccc(O)cc1)NC(=O)[C@H](CC(=O)O)NC(=O)[C@H](CO)NC(=O)[C@@H](NC(=O)[C@H](Cc1ccccc1)NC(=O)[C@@H](NC(=O)CNC(=O)[C@H](CCC(=O)O)NC(=O)[C@H](CO)NC(=O)[C@@H](N)Cc1c[nH]cn1)[C@@H](C)O)[C@@H](C)O)C(=O)N[C@@H](CCCNC(=N)N)C(=O)N[C@@H](C)C(=O)N[C@@H](CCCNC(=N)N)C(=O)N[C@@H](CC(=O)O)C(=O)N[C@@H](Cc1ccccc1)C(=O)N[C@H](C(=O)N[C@@H](C)C(=O)N[C@@H](Cc1c[nH]c2ccccc12)C(=O)N[C@@H](CC(C)C)C(=O)N[C@@H](CCC(=O)O)C(=O)N[C@@H](C)C(=O)NCC(=O)NCC(N)=O)C(C)C [g734] (H-HSEGTFTSDYSEYLDSK([βAla-Palmitoyl])RARDFVAWLEAGG-NH2; N-terminus assumed),EC50,Human GlucR,8280 nM
CCCCCCCCCCCCCCCC(=O)N[C@@H](CCC(=O)NCCCC[C@H](NC(=O)[C@H](CO)NC(=O)[C@H](CC(=O)O)NC(=O)[C@H](CC(C)C)NC(=O)[C@H](Cc1ccc(O)cc1)NC(=O)[C@H](CCC(=O)O)NC(=O)[C@H](CO)NC(=O)[C@H](Cc1ccc(O)cc1)NC(=O)[C@H](CC(=O)O)NC(=O)[C@H](CO)NC(=O)[C@@H](NC(=O)[C@H](Cc1ccccc1)NC(=O)[C@@H](NC(=O)CNC(=O)[C@H](CCC(N)=O)NC(=O)CNC(=O)[C@@H](N)Cc1c[nH]cn1)[C@@H](C)O)[C@@H](C)O)C(=O)N[C@@H](CCCNC(=N)N)C(=O)N[C@@H](C)C(=O)N[C@@H](CCCNC(=N)N)C(=O)N[C@@H](CC(=O)O)C(=O)N[C@@H](Cc1ccccc1)C(=O)N[C@H](C(=O)N[C@@H](C)C(=O)N[C@@H](Cc1c[nH]c2ccccc12)C(=O)N[C@@H](CC(C)C)C(=O)N[C@H](C(=O)N[C@@H](C)C(=O)NCC(=O)NCC(N)=O)C(C)C)C(C)C)C(=O)O [g735] (H-HGQGTFTSDYSEYLDSK([γGlu-Palmitoyl])RARDFVAWLVAGG-NH2; N-terminus assumed),EC50,Human GLP1R,0.161 nM
CCCCCCCCCCCCCCCC(=O)N[C@@H](CCC(=O)NCCCC[C@H](NC(=O)[C@H](CCC(=O)O)NC(=O)[C@H](CO)NC(=O)[C@H](Cc1ccc(O)cc1)NC(=O)[C@H](CC(=O)O)NC(=O)[C@H](CO)NC(=O)[C@@H](NC(=O)[C@H](Cc1ccccc1)NC(=O)[C@@H](NC(=O)CNC(=O)[C@H](CCC(N)=O)NC(=O)[C@H](CO)NC(=O)[C@@H](N)Cc1c[nH]cn1)[C@@H](C)O)[C@@H](C)O)C(=O)N[C@@H](CC(C)C)C(=O)N[C@@H](CC(=O)O)C(=O)N[C@@H](CO)C(=O)N[C@@H](CCC(=O)O)C(=O)N[C@@H](CCCNC(=N)N)C(=O)N[C@@H](C)C(=O)N[C@@H](CCCNC(=N)N)C(=O)N[C@@H](CC(=O)O)C(=O)N[C@@H](Cc1ccccc1)C(=O)N[C@H](C(=O)N[C@@H](C)C(=O)N[C@@H](Cc1c[nH]c2ccccc12)C(=O)N[C@@H](CC(C)C)C(=O)N[C@H](C(=O)N[C@@H](C)C(=O)NCC(=O)NCC(N)=O)C(C)C)C(C)C)C(=O)O [g802] (H-HSQGTFTSDYSEK([γGlu-Palmitoyl])LDSERARDFVAWLVAGG-NH2; N-terminus assumed),EC50,Human GLP1R,0.0364 nM
